# Data as given in patent US9456992B2 (XSPRAY MICROPARTICLES AB, priority 2012, dated 2016).
# Where a name gives a salt, the structure may show the parent alone.
# Columns and labels:
# [1] = Dissolution measurement assay (apparent solubility, non-sink) in FaSSIF solution (pH 6.5); details: for AUC/ 80 min. Mg/min/L: Area Under the Curve during 80 minutes dissolution in FaSSIF solution (pH 6.5)
# Experimental: The medium was prepared in accordance with the manufacturer's instructions. The amount of powder added depends on the wished “total PKI concentration”. […] For other experiments, the drug load was first estimated by HPLC and the amount of powder to obtain the drug concentration was calculated.
# Typically, the powder was added in a 8 mL glass bottle and 7 mL of solution was added (typically FaSSIF, FeSSIF or SGF). The glass bottle was put on a shaker (approximately 1 rotation per minute) for dissolution. Samples of 500 μl where taken after different times, and subsequently centrifuged at approximately 15000 g for 3 minutes. The resulting supernatant was then analyzed by HPLC (C18 column Eclipse, 4.6 mm×15 cm, 1 mL/min, detection at […]. Generally samples were taken after 5, 30 and 90 min and eventually 150 min.
# A number of experiments were carried out, wherein nilotinib base or nilotinib HCl represented the protein kinase inhibitor. The experiments were carried out by measuring concentration of solubilized PKI (mg/L) after 5, 30 and 90 minutes dissolution in a solution at about pH 6.5, namely FaSSIF (Fasted State Simulated Intestinal Fluid). Further, experiments were carried out in an alternative solution at about pH 5, namely FeSSIF (Fed State Simulated Intestinal Fluid). Samples of the solution were taken at various time intervals and the amount of protein kinase inhibitor was measured by the dissolution measurement assay described above.
# A number of experiments were carried out, wherein erlotinib HCl represented the PKI. The experiments were carried out by measuring concentration of PKI (mg/L) after 5, 30 and 90 minutes dissolution in a solution at about pH 6.5, namely FaSSIF (Fasted State Simulated Intestinal Fluid). Further, experiments were carried out in an alternative solution at about pH 5, namely FeSSIF (Fed State Simulated Intestinal Fluid). Samples of the solution were taken at various time intervals and the amount of PKI was measured by the dissolution measurement assay described above.
# A number of experiments were carried out, wherein pazopanib represented the PKI. The experiments were carried out by measuring concentration of PKI (mg/L) after 5, 30 and 90 minutes dissolution in a solution at about pH 6.5, namely FaSSIF (Fasted State Simulated Intestinal Fluid). Further, experiments were carried out in an alternative solution at about pH 5, namely FeSSIF (Fed State Simulated Intestinal Fluid). Samples of the solution were taken at various time intervals and the amount of PKI was measured by the dissolution measurement assay described above.
# A number of experiments were carried out, wherein lapatinib base or lapatinib ditosylate salt represented the PKI. The experiments were carried out by measuring concentration of PKI (mg/L) after 5, 30 and 90 minutes dissolution in a solution at about pH 6.5, namely FaSSIF (Fasted State Simulated Intestinal Fluid). Samples of the solution were taken at various time intervals and the amount of PKI was measured by the dissolution measurement assay described above.
# A number of experiments were carried out, wherein gefitinib represented the PKI. The experiments were carried out by measuring concentration of PKI (mg/L) after 3, 40 and 80 minutes dissolution in a solution at about pH 6.5, namely FaSSIF (Fasted State Simulated Intestinal Fluid). Samples of the solution were taken at various time intervals and the amount of PKI was measured by the dissolution measurement assay described above.
# A number of experiments were carried out, wherein dasatinib represented the PKI. The experiments were carried out by measuring concentration of PKI (mg/L) after 3, 40 and 80 minutes dissolution in a solution at about pH 6.5, namely FaSSIF (Fasted State Simulated Intestinal Fluid). Samples of the solution were taken at various time intervals and the amount of PKI was measured by the dissolution measurement assay described above.
# [2] = Dissolution rate measurement in sink conditions, flow through cell system, FaSSIF, 37° C.; assay type: physicochemical; details: sink condition in FaSSIF
# Experimental: Typically, said dissolution rate is measured by a flow through cell system in sink conditions, e.g., according to the US Pharmacopea (USP4). Dissolution measurement in sink conditions of hybrid nanoparticles may be measured in a method consisting of adding the wished amount of powder into a flow through cell system (SOTAX, Allschwill, Switzerland), mounting the cell onto its apparatus and then pumping the appropriate medium (typically FaSSIF, FeSSIF, SGF) through the powder. The temperature of the apparatus is typically set to 37° C. The amount of powder added into the cell depends on drug load of the powder: The exact amount of powder can be calculated from results obtained from drug load analysis of the powders. The PKI may be added into the flow through cell and a flow rate between 5 and 25 ml medium/min is pumped through the powder. […] Samples are typically taken after 0, 0.5, 1, 1.5, 2, 3, 4, 5, 6, 7, 8, 9, 10, 15, 20, 25, 30, 35 and 40 min from the moment the medium comes out from the flow through cell. The accumulated % solubilized of the amount of active substance added into the flow through cell can be calculated and plotted against time (min). The initial slope (“initial dissolution rate”, representing 0-10 minutes) of the graph may be estimated and taken as the dissolution rate of the material in sink condition at 37° C. in the given dissolution medium.
# Typically, said dissolution rate is measured by a flow through cell system, for instance in sink conditions. […] The temperature of the apparatus is typically set to 37° C. The amount of powder added into the cell depends on drug load of the powder: The exact amount of powder can be calculated from results obtained from drug load analysis of the powders. The PKI may be added into the flow through cell and a flow rate between 5 and 25 ml medium/min is pumped through the powder. […] Samples are typically taken after 0, 0.5, 1, 1.5, 2, 3, 4, 5, 6, 7, 8, 9, 10, 15, 20, 25, 30, 35 and 40 min from the moment the medium comes out from the flow through cell. The accumulated % solubilized of the amount of active substance added into the flow through cell, can be calculated and plotted against time (min). The initial slope (“initial dissolution rate”, representing 0-10 minutes) of the graph can be estimated and taken as the dissolution rate of the material in sink condition at 37° C. in the given dissolution medium.
# Dissolution measurement in sink conditions of compositions of the invention were measured in a method consisting of adding the wished amount of powder into a flow through cell system (SOTAX, Allschwill, Switzerland), mounting the cell onto its apparatus and then pumping the appropriate medium (typically FaSSIF, FeSSIF, SGF) through the powder. The temperature of the apparatus was set to 37° C. The amount of powder added into the cell depends on drug load of the powder: The exact amount of powder was calculated from results obtained from drug load analysis of the powders.
# Typically, 3.5 to 7 mg PKI was added into the flow through cell and a flow rate between 8 and 16 ml medium/min (preferably about 8 ml medium/min) was pumped through the powder. One ml samples of the medium passing through the cell were collected at predetermined times. […] Samples were taken after 0, 0.5, 1, 1.5, 2, 3, 4, 5, 6, 7, 8, 9, 10, 15, 20, 25, 30, 35 and 40 min from the moment the medium comes out from the flow through cell. The accumulated % solubilized of the amount of active substance added into the flow through cell was calculated and plotted against time (min). The initial slope (“initial dissolution rate”) of the graph was estimated, as measured during 0 to 10 minutes, and taken as the dissolution rate of the material in sink condition at 37° C. in the given dissolution medium.
# [3] = nilotinib HCl, FaSSIF solution (pH 6.5), after 30 minutes dissolution, HCl
smiles,measurement,setting,value
"C#Cc1cccc(Nc2ncnc3cc(OCCOC)c(OCCOC)cc23)c1 [Exp 58, erlotinib HCl]",Conc (mg/L) 90 min,"[1]; 90 min, pH 6.5",4.6 mg/L
same,% solubilized 30 min.,"[1]; erlotinib HCl, FaSSIF solution (pH 6.5), 30 min dissolution",0.6%
same,AUC/ 90 min.,"[1]; erlotinib HCl, FaSSIF solution (pH 6.5), AUC during 90 min dissolution",837 Mg/min/L
"Cc1cn(-c2cc(NC(=O)c3ccc(C)c(Nc4nccc(-c5cccnc5)n4)c3)cc(C(F)(F)F)c2)cn1 [Exp 1, Nilotinib HCl]",% solubilized 30 min.,[1]; [3],0.20%
same,AUC/ 90 min. Mg/min/L,"[1]; nilotinib, FaSSIF solution (pH 6.5), Area Under the Curve during 90 minutes dissolution, HCl",13.0 Mg/min/L
CNC(=O)c1cc(Oc2ccc(NC(=O)Nc3ccc(Cl)c(C(F)(F)F)c3)cc2)ccn1.Cc1ccc(S(=O)(=O)O)cc1 [Experiment 560],Accumulated % of solubilized of remaining active substance at a given time (min),[2]; 0 min,0.2%
same,Accumulated % of solubilized of remaining active substance at a given time (min),[2]; 0.5 min,0.4%
same,Accumulated % of solubilized of remaining active substance at a given time (min),[2]; 1 min,0.7%
same,Accumulated % of solubilized of remaining active substance at a given time (min),[2]; 1.5 min,1.0%
same,Accumulated % of solubilized of remaining active substance at a given time (min),[2]; 2 min,1.3%
same,Accumulated % of solubilized of remaining active substance at a given time (min),[2]; 3 min,1.8%
same,Accumulated % of solubilized of remaining active substance at a given time (min),[2]; 4 min,2.2%
same,Accumulated % of solubilized of remaining active substance at a given time (min),[2]; 5 min,2.6%
same,Accumulated % of solubilized of remaining active substance at a given time (min),[2]; 6 min,3.0%
same,Accumulated % of solubilized of remaining active substance at a given time (min),[2]; 7 min,3.4%
same,Accumulated % of solubilized of remaining active substance at a given time (min),[2]; 8 min,3.8%
same,Accumulated % of solubilized of remaining active substance at a given time (min),[2]; 9 min,4.2%
same,Accumulated % of solubilized of remaining active substance at a given time (min),[2]; 10 min,4.6%
same,Accumulated % of solubilized of remaining active substance at a given time (min),[2]; 20 min,8.8%
"CS(=O)(=O)CCNCc1ccc(-c2ccc3ncnc(Nc4ccc(OCc5cccc(F)c5)c(Cl)c4)c3c2)o1 [Exp 110, lapatinib base]",Conc (mg/L) 5 min,"[1]; lapatinib, 5 minutes dissolution in FaSSIF solution (pH 6.5)",2.9 mg/L
same,Conc (mg/L) 30 min,"[1]; lapatinib, 30 minutes dissolution in FaSSIF solution (pH 6.5)",6.0 mg/L
same,Conc (mg/L) 90 min,"[1]; lapatinib, 90 minutes dissolution in FaSSIF solution (pH 6.5)",6.5 mg/L
same,AUC/ 90 min. Mg/min/L,"[1]; lapatinib, Area Under the Curve during 90 minutes dissolution in FaSSIF solution (pH 6.5)",494 Mg/min/L
same,% solubilized 30 min.,"[1]; lapatinib, after 30 minutes dissolution in FaSSIF solution (pH 6.5)",0.3%
"CCCS(=O)(=O)Nc1ccc(F)c(C(=O)c2c[nH]c3ncc(-c4ccc(Cl)cc4)cc23)c1F [Exp 164, vemurafenib]",Conc (mg/L) 3 min,[1]; pH 6.5,0.3 mg/L
same,% solubilized 40 min.,"[1]; 40 min, pH 6.5",0.1%
same,Conc (mg/L) 40 min,"[1]; 40 min, pH 6.5",0.3 mg/L
same,Conc (mg/L) 80 min,[1]; pH 6.5,0.4 mg/L
"CNC(=O)c1ccccc1Sc1ccc2c(/C=C/c3ccccn3)n[nH]c2c1 [Exp 157, axitinib]",Conc (mg/L) 3 min,[1]; pH 6.5,0.6 mg/L
same,Conc (mg/L) 40 min,"[1]; 40 min, pH 6.5",0.6 mg/L
same,Conc (mg/L) 80 min,[1]; pH 6.5,0.6 mg/L
same,AUC/ 80 min. Mg/min/L,[1]; axitinib,4.7 Mg/min/L
same,% solubilized 40 min.,"[1]; axitinib, after 40 minutes dissolution in FaSSIF solution (pH 6.5)",0.1%
"Cc1ccc(Nc2nccc(N(C)c3ccc4c(C)n(C)nc4c3)n2)cc1S(N)(=O)=O [Exp 84, pazopanib]",% solubilized 30 min.,"[1]; 30 min, pH 6.5",2.4%
same,Conc (mg/L) 90 min,"[1]; 90 min, pH 6.5",15.0 mg/L
"CNC(=O)c1cc(Oc2ccc(NC(=O)Nc3ccc(Cl)c(C(F)(F)F)c3)cc2)ccn1 [Exp 142, sorafenib tosylate]",Conc (mg/L) 40 min,"[1]; 40 min, pH 6.5",343.51 mg/L
"Cc1nc(Nc2ncc(C(=O)Nc3c(C)cccc3Cl)s2)cc(N2CCN(CCO)CC2)n1 [Exp 138, dasatinib]",AUC/ 80 min. Mg/min/L,[1]; dasatinib,2396 Mg/min/L
same,% solubilized 40 min.,"[1]; dasatinib, after 40 minutes dissolution in FaSSIF solution (pH 6.5)",6.0%
"Cc1cn(-c2cc(NC(=O)c3ccc(C)c(Nc4nccc(-c5cccnc5)n4)c3)cc(C(F)(F)F)c2)cn1 [Exp 2, Nilotinib HCl]",% solubilized 30 min.,[1]; [3],0.04%
"Cc1cn(-c2cc(NC(=O)c3ccc(C)c(Nc4nccc(-c5cccnc5)n4)c3)cc(C(F)(F)F)c2)cn1 [Exp 3, Nilotinib HCl]",% solubilized 30 min.,[1]; [3],0.03%
"COc1cc2ncnc(Nc3ccc(F)c(Cl)c3)c2cc1OCCCN1CCOCC1 [Exp 131, gefitinib]",AUC/ 80 min. Mg/min/L,[1]; gefitinib,5967 Mg/min/L
"Cc1cn(-c2cc(NC(=O)c3ccc(C)c(Nc4nccc(-c5cccnc5)n4)c3)cc(C(F)(F)F)c2)cn1 [Exp 4, Nilotinib Base]",% solubilized 30 min.,"[1]; nilotinib HCl, FaSSIF solution (pH 6.5), after 30 minutes dissolution",0.50%
